Where a SMILES comes first, the peptide text is derived from it. The star is where a group is joined. X1 = NC(=O)CCOCCOCCOCCOCCOCCOCCOCCOCCOCCOCCOCCOCCOCCOCCOCCOCCOCCOCCOCCOCCOCCOCCOCCOCCOCCOCCOCCOCCN*
Tests used:
CCR3 [1] = biological target: T1, CCR3 (Homo sapiens, UniProt P51677); assay: Chemotaxis assay (Transwell), AML14.3D10-CCR3 cells; type: cell-based; set-up: host or cells: AML14.3D10-CCR3 (eosinophilic myelocytic cell line, kept under G418); settings: for IC90: 4 hours
T1 sequence (P51677 1-355): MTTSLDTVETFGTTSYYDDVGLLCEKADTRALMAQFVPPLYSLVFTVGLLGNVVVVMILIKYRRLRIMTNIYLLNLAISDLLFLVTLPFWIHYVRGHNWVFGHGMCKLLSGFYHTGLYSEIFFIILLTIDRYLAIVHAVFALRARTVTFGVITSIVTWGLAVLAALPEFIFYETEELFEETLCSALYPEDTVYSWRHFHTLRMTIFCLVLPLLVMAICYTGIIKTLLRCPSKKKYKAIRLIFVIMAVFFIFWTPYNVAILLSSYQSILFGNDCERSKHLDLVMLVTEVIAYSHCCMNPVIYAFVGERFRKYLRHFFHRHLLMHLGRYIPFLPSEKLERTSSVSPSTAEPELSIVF
Protocol: AML14.3D10-CCR3 (ATCC, Manassas, Va.; Daugherty, et al. (1996) J. Exp. Med. 183:2349-2354) were maintained in RPMI-1640 supplemented with 10% FBS, 1.5 g/L sodium bicarbonate, 4.5 g/L glucose, 2 mM L-glutamine, 10 mM HEPES, 1 mM sodium pyruvate, 50 μM β-mercaptoethanol, and 2 mg/ml G418 in a humidified incubator with 5% CO2 at 37° C.
Cell migration was determined using a 96-well […]® system (Corning, Tewksbury, Mass.). […] The two chambers were separated by a polycarbonate filter with 5 μm pores. For AML14.3D10-CCR3 cells, 2×10^5 cells/well were resuspended in RPMI-1640+0.1% BSA and allowed to migrate for 4 hours at 37° C. For blood eosinophils, 1×10^5 cells/well were resuspended in X-VIVO 10+0.5% BSA and allowed to migrate for 3 hours at 37° C. Migrated cells were counted using a Beckman QUANTA SC flow cytometer. All experiments were performed in duplicate. Checkerboard analysis was done to distinguish chemotaxis from chemokinesis.
Primary eosinophils and the stable CCR3+eosinophilic myelocytic cell line, AML14.3D10-CCR3 (Daugherty, et al. (1996) J. Exp. Med. 183:2349-2354) undergo CCR3-mediated chemotaxis induced by multiple chemokines including eotaxin/CCL11, RANTES/CCL5, MCP-4/CCL13, and MEC/CCL28 (Daugherty, et al. (1996) J. Exp. Med. 183:2349-2354; Pan, et al. (2000) J. Immunol. 165:2943-2949).

CCR3 [2] = biological target: T1, CCR3; assay: CCR3 surface expression and internalization by flow cytometry, AML14.3D10-CCR3 cells; type: cell-based; set-up: host or cells: AML14.3D10-CCR3 (eosinophilic myelocytic cell line, kept under G418)
Protocol: Error bars represent SEM. *p<0.05, compared to untreated cells; n=3.
To assess surface expression of CCR3, cells were stained using PE-conjugated anti-human CCR3 antibody (clone 5E8, BioLegend) or PE-conjugated isotype-matched control after blocking with 10% human AB serum. To determine ligand-induced CCR3 internalization, cells were incubated with various chemokines for 1 hour at 37° C., washed once in staining buffer (PBS+0.5% BSA+0.1% NaN3) before being stained as above. After antibody staining, cells were fixed in 2% paraformaldehyde and analyzed on a QUANTA SC flow cytometer (Beckman Coulter, Indianapolis, Ind.).

Q: What does the source list for `CC[C@H](C)[C@H](NC(=O)[C@H](Cc1c[nH]c2ccccc12)NC(=O)[C@H](Cc1ccccc1)NC(=O)[C@@H]1CCCN1C(=O)[C@H](CC(C)C)NC(=O)[C@@H](NC(=O)[C@@H](NC(=O)[C@H](CC(C)C)NC(=O)[C@H](Cc1ccccc1)NC(=O)[C@H](CC(C)C)NC(=O)[C@@H](N)CC(C)C)C(C)C)[C@@H](C)O)C(=O)N[C@@H](Cc1c[nH]cn1)C(=O)N[C@@H](Cc1ccc(O)cc1)C(=O)N[C@H](C(=O)N[C@@H](CCCNC(=N)N)C(=O)NCC(=O)N[C@@H](Cc1c[nH]cn1)C(=O)N[C@@H](CC(N)=O)C(=O)N[C@@H](Cc1c[nH]c2ccccc12)C(=O)N[C@H](C(=O)N[C@@H](Cc1ccccc1)C(=O)NCC(=O)N[C@@H](Cc1c[nH]cn1)C(=O)N[C@@H](CC(=O)O)C(=O)N[C@@H](CC(=O)O)C(=O)N[C@@H](CC(=O)O)C(=O)NCCOCCOCCOCCOCCOCCOCCOCCOCCOCCOCCOCCOCCOCCOCCOCCOCCOCCOCCOCCOCCOCCOCCOCCOCCOCCOCCOCCOCCC(N)=O)C(C)C)C(C)C` [Peptide R3-2-1] (H-LLFLVTLPFWIHYVRGHNWVFGHDDD-X1; N-terminus assumed)?
A: tolerance to inhibition of CCL11-induced chemotaxis (CCR3 [1]; 1 μM for 24, 48 or 72 hour, CCL11 12 nM): retains it full inhibitory activity; chemotactic (agonist) activity by itself (CCR3 [1]; AML14.3D10-CCR3 cells, no chemokine): not chemotactic; inhibition of CCR3-mediated chemotaxis induced by Eotaxin/CCL11, RANTES/CCL5 and MEC/CCL28 (CCR3 [1]; AML14.3D10-CCR3 cells, R3-2-1 0.4, 2 or 10 μM): inhibits chemotaxis induced by Eotaxin/CCL11, RANTES/CCL5 and MEC/CCL28 in a dose-dependent fashion; IC90 (CCR3 [1]; AML14.3D10-CCR3 cells, chemotaxis to CCL11/Eotaxin-1 (12 nM)): 1750 ± 200 nM; IC90 (CCR3 [1]; AML14.3D10-CCR3 cells, chemotaxis to CCL24/Eotaxin-2 (20 nM)): 890 ± 120 nM; IC90 (CCR3 [1]; AML14.3D10-CCR3 cells, chemotaxis to CCL26/Eotaxin-3 (100 nM)): 780 ± 100 nM; CCR3 internalization or surface accumulation on prolonged treatment (CCR3 [2]; 1 μM for 24, 48 or 72 hour, with or without CCL11 (12 nM)): promotes CCR3 internalization; CCL11-induced receptor internalization (CCR3 [2]; 1 μM, added concurrently with 12 nM CCL11): neither R3-2-1 (1 μM) nor R3-2-3 (1 μM) interfere with CCL11-induced receptor internalization; CCL11-induced CCR3 endocytosis (CCR3 [2]; 2 or 10 μM): does not inhibit CCL11-induced CCR3 endocytosis; surface CCR3 expression in the absence of CCR3 ligand (CCR3 [2]; AML14.3D10-CCR3 cells, significant at 1 μM): significantly decreases surface CCR3 expression

Reference: patent US11167012B2, “Peptide inhibition of CCR3-mediated diseases or conditions” (The Board of Trustees of the University of Illinois, priority 2015, dated 2021)
